Results: BigSolDB 2.1

CN1C(C(=O)Nc2ccccn2)=C(O)c2sccc2S1(=O)=O
Conditions | solubility (mole fraction)
in PEG-400, 298.15 K | 0.00976
in PEG-400, 303.15 K | 0.0131
in PEG-400, 308.15 K | 0.0175
in PEG-400, 313.15 K | 0.0227
in PEG-400, 323.15 K | 0.0345

solubility (mole fraction)
Conditions | in ethanol | in ethyl acetate | in ethylene glycol | in isopropanol | in n-butanol | in propylene glycol | in sec-butanol | in transcutol | in water
298.15 K | 3.71e-05 | 0.000679 | 0.000213 | 6.27e-05 | 8.13e-05 | 0.000194 | 6.15e-05 | 0.00183 | 4.11e-06
303.15 K | 4.11e-05 | 0.000746 | 0.000246 | 8.91e-05 | 0.000105 | 0.000235 | 8.79e-05 | 0.00202 | 5.07e-06
308.15 K | 4.56e-05 | 0.000825 | 0.000283 | 0.000125 | 0.000134 | 0.000275 | 0.000123 | 0.00222 | 6.46e-06
313.15 K | 4.98e-05 | 0.000908 | 0.000324 | 0.000164 | 0.000163 | 0.000327 | 0.000163 | 0.00241 | 8.33e-06
323.15 K | 5.84e-05 | 0.00106 | 0.000441 | 0.000267 | 0.000239 | 0.000437 | 0.000272 | 0.00286 | 1.38e-05
